Columns and labels:
NHPs = conditions: cited from earlier work
[1] = system: female Cynomolgus monkeys; assay: Clinical observations (retching, emesis, salivation) during OR and PK studies; type: in vivo, Cynomolgus macaques (Macaca fascicularis); conditions: 0.03 mg/kg IM; one animal (5B09), 20 minutes post dose
Experimental: • Week 1: Animals were habituated to intramuscular injections daily using the ‘rolipram’ vehicle formulation (10% solutol (w/v), 90% saline vehicle in a 0.1 mL/Kg dose volume) Monday through Friday, and a single baseline OR trial evaluation was performed on Wednesday (OR4) (Figure 2A). Animals were dosed with vehicle 30 minutes prior to this behavioural evaluation. • Weeks 2 to 5: Evaluation of rolipram in OR task. Following the stable baseline performance establishment (OR1 – 4), all animals were administered the 3 doses of rolipram (0.003, 0.01 and 0.03 mg/Kg) or vehicle intramuscularly 30 minutes before evaluation on the OR task, every Wednesday through Weeks 2–5 (OR5-8). All animals were dosed with vehicle on the preceding Monday and Tuesday to keep them habituated to the injections and avoid any Pavlovian conditioning to any pro-emetic effects of treatment, although no OR testing was carried out on those days. Treatment was administered at approximately the same time each day and administered via the intramuscular route at a volume of 0.1 mL/kg. […]
Animals were closely monitored for the duration of the study, and were videotaped during task performance. Body weights were monitored weekly. Clinical observations were recorded prior to dose administration and after the completion of each OR task. […]

[2] = system: female Cynomolgus monkeys; assay: Object retrieval (OR) detour task; type: in vivo, Cynomolgus macaques (Macaca fascicularis)
Description: A total of n = 8 female Cynomolgus monkeys aged 4–6 years were trained in the OR task and were used for these studies, following a cross-over design. Animals were trained to ensure adequate and stable performance during the dosing studies. Animals were individually housed prior to the initiation of the study. Animals were habituated to the oral gavage method using positive reinforcement techniques for a minimum of 2 weeks prior to the initiation of OR testing to mitigate any adverse impact on behaviour. To ensure accurate dosing each individual was momentarily restrained in a ‘standing’ type primate chair to allow easy and gentle passage of the gavage tube. The oral doses were administered in a dose volume of 1.0 mL/Kg which was followed with 5 mL of purified water to ensure no residual compound formulation remained in the gavage tube. During dose habituation and the study the same study personnel administered the compounds and thus a non-stressful, familiar routine for the animals was achieved.
The OR task, [55] requires the subject to retrieve a food reward from a clear acrylic box (dimensions = 5×5×5 cm) with one open side which is positioned in front of the subject on a metal holder fixed to the outside of the home cage. The cube is presented to the subject with the open side facing left, right, or toward the monkey in a randomised set list of easy versus difficult trials. Food rewards (raisins or cubes of fruit pieces 1–2 cm^2) were placed on the outer edge, inner edge, line of sight (all easy), or deep within the box (difficult). Each test session consisted of 17 trials, with an initial Easy phase of 3 easy trials followed by a Random phase of 9 trials (4 difficult and 5 easy, presented randomly for each session), followed by a Difficult phase of 4 difficult trials and finally one final Easy Trial (Figure 2A). The final easy trial was included for reward purposes and although the number of attempts was recorded the data were not used for analysis. For successive test sessions, the subject was presented with the trials in an order exactly the reverse of the previous session (previous left side exposure became right side exposure and vice-versa). Individual trials within one OR session were terminated if there were no reaches or successful retrieval of the reward within 2 minutes by the subject. The acrylic box was cleaned between trials to minimize cues which may influence subsequent task performance through easier identification of the cube entrance.
Animals were habituated to the metal frame prior to introducing the OR cube. During training, the animals were exposed to the OR trials as depicted in Figure 2A for 4 occasions (twice a week- OR trial # T1-T4 – data not shown). Importantly, during this period of training, all animals acquired the rewards even after an incorrect first reach. OR evaluations were then subsequently conducted once per week to discourage learning and thus ensure no performance shift during the pharmacology study (Figure 2B). […]
Baseline performance was targeted to be an average, stable performance of >50% correct responses in the easy tasks, with less than 40% correct responses in the difficult tasks (Figure 2B). All animals evaluated during this phase met these criteria by the end of the training session, with the exception of one animal, which was a baseline ‘high performer’ on difficult trials (Animal 3939). […]

[3] = repeat measures ANOVA, dose group as factor

**Q.** For `COc1ccc(C2CNC(=O)C2)cc1OC1CCCC1` (stereo not drawn) [rolipram, Rolipram], which retching (NHPs; 0.05 mg/kg IM, separate study, ref Maccine, personal communication) is on record?
**A.** The retching was “all animals retching”.

**Q.** And the emesis (NHPs; 0.06 mg/kg)?
**A.** Its emesis is “emesis”.

**Q.** And the “emesis (monkeys affected)” value (NHPs; 0.1 mg/kg)?
**A.** Its value is 12 of 14.

**Q.** What about the adverse reactions [1] of the same compound?
**A.** Its adverse reactions is “Retching and severe salivation”.

**Q.** What about the “mean percent correct first reaches, difficult trials (effect vs vehicle)” value ([2]; 0.01 mg/kg IM) of the same compound?
**A.** Its value is “significance was not observed”.

**Q.** What about the “mean percent correct first reaches, difficult trials” value ([2]; 0.03 mg/Kg IM, 30 min before OR, mean ± SEM, vehicle 22±8%) of the same compound?
**A.** Its value is 42±8%.

**Q.** And the “mean percent correct first reach, easy level trials (effect of dosing)” value [2, 3]?
**A.** The value was “No significant improvement”.

**Q.** What about the “number of barrier reaches, difficult trials (effect of dosing)” value [2, 3] of the same compound?
**A.** Its value is “No significant change”.

**Q.** And the “total number of reaches, difficult trials (effect of dosing)” value [2, 3]?
**A.** Its value is “No significant change”.
